Measured values from US10260079B2, “Method for producing ergothioneine by using soybean cake powder as nitrogen source in a seed medium” (TIANJIN INSTITUTE OF INDUSTRIAL BIOTECHNOLOGY, CHINESE …, priority 2014, dated 2019).
“And” between values parts separate entries of the source, which are not always exact repeats. Identical values can stand only once. Like-named read-outs stand apart in the source and are kept apart here.

Experiments:
[1] = tested on: Pleurotus ostreatus mycelia CGMCC No. 6232; experiment: Shake-flask fermentation, total content of ergothioneine in the fermentation broth by HPLC; format: cell-based
[2] = tested on: Pleurotus ostreatus mycelia CGMCC No. 6232; experiment: Shake-flask fermentation, content of extracellular ergothioneine in the filtrate by HPLC
Procedure: Seed medium: corn flour 30 g/L, soybean meal powder 15 g/L, α-amylase 80 U/L, KH2PO4 3 g/L, MgSO4.7H2O 1.5 g/L, and a balance of water. The seed medium was sterilized at 121° C. for 20 min, and the liquid volume in a 500 mL triangular flask was 150 mL. […] A lawn of the strain CGMCC No. 6232 was picked from the PDA slant and inoculated into the seed medium, cultured on a shaker at 150 rpm at 25° C. for 4 days, to obtain a seed liquor. […] The obtained permeate was the test sample for detection of the content of extracellular ergothioneine in the filtrate. […] The solutions were filtered with 0.22 μm millipore filter to obtain the reference solutions. Qualitative and quantitative detection: L-ergothioneine reference solutions and the test samples were detected by HPLC under the same chromatographic conditions. The chromatograms of the test samples were compared with those of the L-ergothioneine reference solutions, and the chromatographic peak of L-ergothioneine in the test sample was identified based on the retention time. A standard curve was plotted with the concentrations of L-ergothioneine reference solutions and the corresponding peak areas. In the case that the sample load of the reference solution was identical with that of the test sample, an external standard method was used for quantification so as to calculate the content of ergothioneine in the test sample. The concentration of ergothioneine in the test sample was the concentration of ergothioneine in the fermentation broth. Detection conditions: the chromatographic column was Agilent Eclipse XDB-C18 (4.6×250 mm, 5 μm), with two chromatographic columns in series; the mobile phase was 1% methanol solution, the pH of which was adjusted to 5.0 using acetic acid-sodium acetate buffer; the detection wavelength was 257 nm; the flow rate was 0.7 mL/min; the column temperature was 25° C.; and the sample load was 5 μL. […] Pleurotus ostreatus mycelia CGMCC No. 6232 were subjected to fermentation and culture.

tween 60
Content of ergothioneine in fermentation broth ([1]; tween 60 2 g/L added in fermentation medium): 128.8 ± 1.51 mg/L
Content of ergothioneine in fermentation broth ([1]; tween 60 5 g/L added in fermentation medium): 173.6 ± 2.98 mg/L
content of ergothioneine improved compared with control group ([1]; tween 60 10 g/L): 74.9%
Content of ergothioneine in fermentation broth ([1]; tween 60 10 g/L added in fermentation medium): 212.7 mg/L and 212.7 ± 4.52 mg/L
Content of ergothioneine in fermentation broth ([1]; tween 60 20 g/L added in fermentation medium): 184.4 ± 3.78 mg/L
Content of ergothioneine in fermentation broth ([1]; tween 60 40 g/L added in fermentation medium): 154.2 ± 2.63 mg/L
Content of ergothioneine in fermentation broth ([1]; tween 60 50 g/L added in fermentation medium): 129.1 ± 2.1 mg/L
content of extracellular ergothioneine in the filtrate ([2]; tween 60 5 g/L (highest)): 16.24 mg/L

CC(C)O [isopropyl alcohol]
content of extracellular ergothioneine in the filtrate ([2]; isopropyl alcohol 2% (V/V) (highest)): 10.04 mg/L

Clc1ccc(COC(Cn2ccnc2)c2ccc(Cl)cc2Cl)c(Cl)c1 (stereo not drawn) [Miconazole, reference compound]
Content of ergothioneine in fermentation broth ([1]; Miconazole 0.5 mg/L added in fermentation medium): 132.4 ± 2.96 mg/L
Content of ergothioneine in fermentation broth ([1]; Miconazole 1 mg/L added in fermentation medium): 140.0 ± 3.28 mg/L
Content of ergothioneine in fermentation broth ([1]; Miconazole 5 mg/L added in fermentation medium): 152.9 mg/L and 152.9 ± 4.22 mg/L
Content of ergothioneine in fermentation broth ([1]; Miconazole 10 mg/L added in fermentation medium): 147.0 ± 3.09 mg/L
Content of ergothioneine in fermentation broth ([1]; Miconazole 15 mg/L added in fermentation medium): 129.8 ± 2.11 mg/L
activation at 5 µg/mL ([1]; Pleurotus ostreatus, CGMCC6232, 360 h, Miconazole 5 mg/L, read-out: content of ergothioneine improved compared with control group): 24.9%
content of extracellular ergothioneine in the filtrate ([2]; Miconazole 50 mg/L (highest)): 9.14 mg/L

CCCCCCCC/C=C\CCCCCCCC(=O)OCCOCC(OCCO)C1OCC(OCCO)C1OCCO (stereo not drawn) [tween 80]
activation at 10000 µg/mL ([1]; Pleurotus ostreatus, CGMCC6232, 360 h, tween 80 10 g/L, read-out: content of ergothioneine improved compared with control group): 78.5%
Content of ergothioneine in fermentation broth ([1]; tween 80 0.5 g/L added in fermentation medium): 130.2 ± 1.56 mg/L
Content of ergothioneine in fermentation broth ([1]; tween 80 2 g/L added in fermentation medium): 155.9 ± 2.7 mg/L
Content of ergothioneine in fermentation broth ([1]; tween 80 5 g/L added in fermentation medium): 181.8 ± 3.95 mg/L
Content of ergothioneine in fermentation broth ([1]; tween 80 10 g/L added in fermentation medium): 217 mg/L and 217 ± 4.37 mg/L
Content of ergothioneine in fermentation broth ([1]; tween 80 20 g/L added in fermentation medium): 170.9 ± 4.43 mg/L
Content of ergothioneine in fermentation broth ([1]; tween 80 40 g/L added in fermentation medium): 130.9 ± 1.61 mg/L
content of extracellular ergothioneine in the filtrate ([2]; tween 80 10 g/L (highest)): 18.72 mg/L

C[S+](C)[O-] [dimethyl sulfoxide]
content of extracellular ergothioneine in the filtrate ([2]; dimethyl sulfoxide 2% (V/V) (highest)): 10.18 mg/L

CC(=O)N1CCN(c2ccc(OCC3COC(Cn4ccnc4)(c4ccc(Cl)cc4Cl)O3)cc2)CC1 (stereo not drawn) [Ketoconazole, reference compound]
Content of ergothioneine in fermentation broth ([1]; Ketoconazole 0.5 mg/L added in fermentation medium): 127.6 ± 1.06 mg/L
Content of ergothioneine in fermentation broth ([1]; Ketoconazole 1 mg/L added in fermentation medium): 130.7 ± 2.22 mg/L
Content of ergothioneine in fermentation broth ([1]; Ketoconazole 5 mg/L added in fermentation medium): 134.1 mg/L and 134.1 ± 2.99 mg/L
Content of ergothioneine in fermentation broth ([1]; Ketoconazole 10 mg/L added in fermentation medium): 132.5 ± 1.87 mg/L
Content of ergothioneine in fermentation broth ([1]; Ketoconazole 50 mg/L added in fermentation medium): 128.9 ± 1.18 mg/L
activation at 5 µg/mL ([1]; Pleurotus ostreatus, CGMCC6232, 360 h, Ketoconazole 5 mg/L, read-out: content of ergothioneine improved compared with control group): 9.6%
content of extracellular ergothioneine in the filtrate ([2]; Ketoconazole 50 mg/L (highest)): 5.77 mg/L

Cc1ncc(C[n+]2csc(CCO)c2C)c(N)n1 [VB1, vitamin B1]
Content of ergothioneine in fermentation broth ([1]; VB1 0.01 g/L added in fermentation medium): 122.7 ± 1.02 mg/L
Content of ergothioneine in fermentation broth ([1]; VB1 0.05 g/L added in fermentation medium): 128.8 ± 2.41 mg/L
content of ergothioneine improved compared with control group ([1]; VB1 0.1 g/L): 11.2%
Content of ergothioneine in fermentation broth ([1]; VB1 0.1 g/L added in fermentation medium): 132.2 mg/L and 132.2 ± 1.39 mg/L
Content of ergothioneine in fermentation broth ([1]; VB1 0.2 g/L added in fermentation medium): 129.6 ± 2.67 mg/L
Content of ergothioneine in fermentation broth ([1]; VB1 0.4 g/L added in fermentation medium): 127 ± 1.86 mg/L
Content of ergothioneine in fermentation broth ([1]; VB1 0.8 g/L added in fermentation medium): 123.3 ± 3.03 mg/L

N[C@@H](CS)C(=O)O [cysteine]
activation at 15000 µM ([1]; Pleurotus ostreatus, CGMCC6232, 360 h, cysteine 15 mmol/L added on the 6th day, read-out: content of ergothioneine improved compared with control group): 56%
activation at 15000 µM ([1]; Pleurotus ostreatus, CGMCC6232, 360 h, cysteine 15 mmol/L, read-out: content of ergothioneine improved compared with control group): 46%
Content of ergothioneine in fermentation broth ([1]; cysteine 2 mmol/L added in fermentation medium): 124.8 ± 2.03 mg/L
Content of ergothioneine in fermentation broth ([1]; cysteine 9 mmol/L added in fermentation medium): 140.4 ± 1.83 mg/L
Content of ergothioneine in fermentation broth ([1]; cysteine 15 mmol/L added in fermentation medium): 175.5 mg/L and 175.5 ± 1.36 mg/L
Content of ergothioneine in fermentation broth ([1]; cysteine 15 mmol/L, timing for adding 0 d (before the fermentation)): 170.3 ± 1.92 mg/L
Content of ergothioneine in fermentation broth ([1]; cysteine 15 mmol/L, timing for adding 2 d): 177.4 ± 2.33 mg/L
Content of ergothioneine in fermentation broth ([1]; cysteine 15 mmol/L, timing for adding 4 d): 186.1 ± 1.67 mg/L
Content of ergothioneine in fermentation broth ([1]; cysteine 15 mmol/L, timing for adding 6 d): 193.8 mg/L and 193.8 ± 4.16 mg/L
Content of ergothioneine in fermentation broth ([1]; cysteine 15 mmol/L, timing for adding 8 d): 172.1 ± 1.73 mg/L
Content of ergothioneine in fermentation broth ([1]; cysteine 15 mmol/L, timing for adding 10 d): 156.5 ± 2.52 mg/L
Content of ergothioneine in fermentation broth ([1]; cysteine 25 mmol/L added in fermentation medium): 164.6 ± 4.31 mg/L
Content of ergothioneine in fermentation broth ([1]; cysteine 35 mmol/L added in fermentation medium): 148.1 ± 2.74 mg/L
Content of ergothioneine in fermentation broth ([1]; cysteine 45 mmol/L added in fermentation medium): 126.1 ± 2.99 mg/L

OC(Cn1cncn1)(Cn1cncn1)c1ccc(F)cc1F [Fluconazole, reference compound]
Content of ergothioneine in fermentation broth ([1]; Fluconazole 2 mg/L added in fermentation medium): 131.6 ± 1.92 mg/L
Content of ergothioneine in fermentation broth ([1]; Fluconazole 5 mg/L added in fermentation medium): 137.2 ± 2.51 mg/L
Content of ergothioneine in fermentation broth ([1]; Fluconazole 20 mg/L added in fermentation medium): 141.3 ± 3.27 mg/L
Content of ergothioneine in fermentation broth ([1]; Fluconazole 50 mg/L added in fermentation medium): 146.4 mg/L and 146.4 ± 3.41 mg/L
Content of ergothioneine in fermentation broth ([1]; Fluconazole 80 mg/L added in fermentation medium): 132.7 ± 3.39 mg/L
activation at 50 µg/mL ([1]; Pleurotus ostreatus, CGMCC6232, 360 h, Fluconazole 50 mg/L, read-out: content of ergothioneine improved compared with control group): 19.6%
content of extracellular ergothioneine in the filtrate ([2]; Fluconazole 50 mg/L (highest)): 7.67 mg/L

OCC(O)CO [glycerol]
activation at 75000 µg/mL ([1]; Pleurotus ostreatus, CGMCC6232, 360 h, glycerol 75 g/L vs 50 g/L, casein peptone 50 g/L, read-out: content of ergothioneine improved compared with control group): 8.5%
Content of ergothioneine in fermentation broth ([1]; glycerol 65 g/L, casein peptone 50 g/L in fermentation medium (control glycerol 50 g/L)): 162.4 ± 2.67 mg/L
Content of ergothioneine in fermentation broth ([1]; glycerol 75 g/L, casein peptone 50 g/L in fermentation medium (control glycerol 50 g/L)): 170.2 mg/L and 170.2 ± 3.49 mg/L
Content of ergothioneine in fermentation broth ([1]; glycerol 85 g/L, casein peptone 50 g/L in fermentation medium (control glycerol 50 g/L)): 164.8 ± 3.41 mg/L
Content of ergothioneine in fermentation broth ([1]; glycerol 95 g/L, casein peptone 50 g/L in fermentation medium (control glycerol 50 g/L)): 160.1 ± 1.15 mg/L

O=C(O)CN(CCN(CC(=O)O)CC(=O)O)CC(=O)O [EDTA, ethylenediaminetetraacetic acid]
content of extracellular ergothioneine in the filtrate ([2]; EDTA 0.5 g/L (highest)): 9.28 mg/L
